According to patent publication US8716493B2, “Multicyclic compounds and the use thereof” (Cephalon, Inc., priority 2000, dated 2014):
Read-outs that look alike come from different tables or passages of the source.

Target: recombinant human PARP (Homo sapiens, UniProt P09874)
Assay: Measurement of PARP enzymatic activity (transfer of radiolabeled ADP-ribose from NAD+ to protein acceptor)
Format: biochemical
Method: PARP activity was monitored by transfer of radiolabeled ADP-ribose units from [^32]NAD^+ to a protein acceptor such as histone or PARP itself. […] The reactions were initiated by the addition of 100 μM NAD^+ supplemented with 2 uCi [^32]NAD^+/mL and maintained at room temperature for 12 minutes. […] The amount of acid-insoluble radioactivity, corresponding to polyADP-ribosylated protein, was quantitated in a Wallac MicroBeta scintillation counter.
Single-point inhibition data were calculated by comparing PARP, VEGFR2, or MLK3 activity in the presence of inhibitor to activity in the presence of DMSO only. Inhibition curves for compounds were generated by plotting percent inhibition versus log10 of the concentration of compound. IC50 values were calculated by nonlinear regression using the sigmoidal dose-response (variable slope) equation in GraphPad Prism as follows: y=bottom+(top−bottom)/(1+10^(log IC50^−x)*Hillslope) where y is the % activity at a given concentration of compound, x is the logarithm of the concentration of compound, bottom is the % inhibition at the lowest compound concentration tested, and top is the % inhibition at the highest compound concentration examined. The values for bottom and top were fixed at 0 and 100, respectively. IC50 values were reported as the average of at least three separate determinations.
For some compounds, inhibiting data is presented as percent inhibition at a specified concentration. Compounds are tabulated together with compound number, substituents, and enzyme inhibition data.

Chain of recombinant human PARP (P09874 whole entry): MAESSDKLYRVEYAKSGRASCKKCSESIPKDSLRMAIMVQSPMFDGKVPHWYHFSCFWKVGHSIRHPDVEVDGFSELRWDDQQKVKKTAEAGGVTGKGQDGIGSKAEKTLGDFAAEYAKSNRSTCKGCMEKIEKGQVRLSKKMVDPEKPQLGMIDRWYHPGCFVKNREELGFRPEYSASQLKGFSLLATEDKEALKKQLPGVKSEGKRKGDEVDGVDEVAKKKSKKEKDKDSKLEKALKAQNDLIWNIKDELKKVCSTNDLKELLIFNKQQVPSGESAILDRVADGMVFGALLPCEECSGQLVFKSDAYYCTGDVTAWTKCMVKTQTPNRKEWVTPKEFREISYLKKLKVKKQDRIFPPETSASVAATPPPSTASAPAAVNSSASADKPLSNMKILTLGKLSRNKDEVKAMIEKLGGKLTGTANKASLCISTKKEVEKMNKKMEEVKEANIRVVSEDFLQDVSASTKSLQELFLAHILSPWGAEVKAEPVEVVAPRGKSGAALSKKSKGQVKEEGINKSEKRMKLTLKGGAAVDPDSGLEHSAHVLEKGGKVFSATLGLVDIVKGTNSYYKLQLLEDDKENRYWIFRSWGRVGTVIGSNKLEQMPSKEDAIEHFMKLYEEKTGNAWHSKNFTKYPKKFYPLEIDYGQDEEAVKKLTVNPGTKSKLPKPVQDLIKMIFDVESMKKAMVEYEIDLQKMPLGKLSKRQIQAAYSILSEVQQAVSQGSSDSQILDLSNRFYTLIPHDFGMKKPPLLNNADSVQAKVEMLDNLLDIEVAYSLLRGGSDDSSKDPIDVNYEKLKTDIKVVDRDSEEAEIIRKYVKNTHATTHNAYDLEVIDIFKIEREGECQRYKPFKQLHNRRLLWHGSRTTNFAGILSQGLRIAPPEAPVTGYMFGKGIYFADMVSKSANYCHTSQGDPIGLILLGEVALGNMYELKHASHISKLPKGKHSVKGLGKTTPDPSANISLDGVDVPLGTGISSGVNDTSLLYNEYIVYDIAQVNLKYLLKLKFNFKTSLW

Row | SMILES | IC50 (Table 2, read-out: PARP IC50) | further results
1 | O=C1NC(=O)c2c1c1c(c3[nH]c4ccc(OCCN5CCOCC5)cc4c23)CCC1 [Compound 2at] | 22 nM | 
2 | O=C(O)CCCC(=O)c1ccc2[nH]c3c4c(c5c(c3c2c1)C(=O)NC5=O)CCC4 [Compound 4n] | 2 nM | 
3 | O=C(CCC(=O)c1ccc2[nH]c3c4c(c5c(c3c2c1)C(=O)NC5=O)CCC4)NCCO [Compound 4g] | 9 nM | 
4 | CCN(CC)CC(=O)c1ccc2[nH]c3c4c(c5c(c3c2c1)C(=O)NC5=O)CCC4 [Compound 2j] | 21 nM | 
5 | O=C1NC(=O)c2c1c1c(c3[nH]c4cccc(OCCN5CCOCC5)c4c23)CCC1 [Compound 14d] |  | IC50 (Table 18, read-out: PARP IC50): 441 nM
6 | CCOc1ccnc2[nH]c3c4c(c5c(c3c12)C(=O)NC5=O)CCC4 [Compound 8y] |  | IC50 (Table 18, read-out: PARP IC50): 5 nM
7 | CC(=O)Nc1nc(-c2ccc3[nH]c4c5c(c6c(c4c3c2)C(=O)NC6=O)CCC5)c[nH]1 [Compound 3l] | 47 nM | 
8 | O=C1NC(=O)c2c1c1c(c3[nH]c4nccc(Cl)c4c23)CCC1 [Compound 8z] |  | IC50 (Table 18, read-out: PARP IC50): 9 nM
9 | O=C(Cn1cncn1)c1ccc2[nH]c3c4c(c5c(c3c2c1)C(=O)NC5=O)CCC4 [Compound 2n] | 15 nM | 
10 | COc1cccc2[nH]c3c4c(c5c(c3c12)C(=O)N(CN1CCOCC1)C5=O)CCC4 [Compound 16d] |  | IC50 (Table 18, read-out: PARP IC50): 11 nM
11 | O=C1c2c3c(c4[nH]c5ccccc5c4c2C(=O)N1CCCO)CCC3 [Compound 1e] |  | IC50 (Table 1, read-out: PARP IC50): 946 nM
12 | O=C1NC(=O)c2c1c1c(c3[nH]c4ccc(CN(Cc5ccccc5)Cc5ccccc5)cc4c23)CCC1 [Compound 2bo] | 293 nM | 
13 | CCOCCOc1ccnc2[nH]c3c4c(c5c(c3c12)C(=O)NC5=O)CCC4 [Compound 8ab] |  | IC50 (Table 18, read-out: PARP IC50): 11 nM
14 | O=C1c2c3c(c4[nH]c5ccccc5c4c2C(=O)N1CCOCc1ccccc1)CCC3 [Compound 1n] |  | IC50 (Table 1, read-out: PARP IC50): 1600 nM
15 | O=C1NC(=O)c2c1c1c(c3[nH]c4ncccc4c23)CCC1 [Compound 8h] |  | IC50 (Table 4, read-out: PARP IC50): 3 nM
16 | Nc1nc(-c2ccc3[nH]c4c5c(c6c(c4c3c2)C(=O)NC6=O)CCC5)cs1 [Compound 3a] | 25 nM | 
17 | CC(C)CC(=O)NCc1nc(-c2ccc3[nH]c4c5c(c6c(c4c3c2)C(=O)NC6=O)CCC5)cs1 [Compound 3r] | 56 nM | 
18 | NCCc1ccc2[nH]c3c4c(c5c(c3c2c1)C(=O)NC5=O)CCC4 [Compound 2be] | 36 nM | 
19 | COCCNC(=O)c1ccc2[nH]c3c4c(c5c(c3c2c1)C(=O)NC5=O)CCC4 [Compound 2co] | 18 nM | 
20 | O=C(O)CCC(=O)NCc1ccc2[nH]c3c4c(c5c(c3c2c1)C(=O)NC5=O)CCC4 [Compound 2ab, 3-(N-(3-(Carboxy)propanoyl)aminomethyl)-5,7,8,9,10,11-hexahydrocyclopent[a]-pyrrolo[3,4-c]carbazole-5(6H), 7-dione] | 50 nM | 
21 | CN(CCc1ccccn1)C(=O)Oc1ccc2[nH]c3c4c(c5c(c3c2c1)C(=O)NC5=O)CCC4 [Compound 15h] |  | IC50 (PARP IC50 (nM), Table 8): 39 nM
22 | CCCC(=O)NCc1ccc2[nH]c3c4c(c5c(c3c2c1)C(=O)NC5=O)CCC4 [Compound 2t, 3-(Butanoylaminomethyl)-5,7,8,9,10,11-hexahydrocyclopent[a]pyrrolo[3,4-c]carbazole-5(6H), 7-dione] | 44 nM | 
23 | COC(=O)CCCC(=O)NCc1ccc2[nH]c3c4c(c5c(c3c2c1)C(=O)NC5=O)CCC4 [Compound 2aa, 3-(N-(4-(Methoxycarbonyl)butanoyl)aminomethyl)-5,7,8,9,10,11-hexahydrocyclopent[a]pyrrolo[3,4-c]carbazole-5(6H), 7-dione] | 9 nM | 
24 | COC(=O)CCC(=O)NCc1ccc2[nH]c3c4c(c5c(c3c2c1)C(=O)NC5=O)CCC4 [Compound 2z, 3-(N-(3-(Methoxycarbonyl)propanoyl)aminomethyl)-5,7,8,9,10,11-hexahydrocyclopent[a]pyrrolo[3,4-c]carbazole-5(6H), 7-dione] | 10 nM | 

Row | SMILES | IC50 (Table 2, read-out: PARP IC50) | further results
25 | CO[n+]1cccc2c3c4c(c5c(c3[nH]c21)CCC5)C(=O)NC4=O [Compound 8o] |  | IC50 (Table 18, read-out: PARP IC50): 4 nM
26 | CCNC(=O)NCc1nc(-c2ccc3[nH]c4c5c(c6c(c4c3c2)C(=O)NC6=O)CCC5)cs1 [Compound 3o] | 20 nM | 
27 | CN(C)CN1C(=O)c2c3c(c4[nH]c5ccccc5c4c2C1=O)CCC3 [Compound 16i] |  | IC50 (Table 18, read-out: PARP IC50): 53 nM
28 | O=C(CCC(=O)N1CCCC1)c1ccc2[nH]c3c4c(c5c(c3c2c1)C(=O)NC5=O)CCC4 [Compound 4t] | 16 nM | 
29 | O=C1NC(=O)c2c1c1c(c3[nH]c4ccccc4c23)CCC1 [Compound 1a, 5,7,8,9,10,11-hexahydrocyclopent[a]pyrrolo[3,4-c]carbazole-5(6H), 7-dione] |  | IC50 (Table 1, read-out: PARP IC50): 36 nM; IC50 (Table 3, read-out: PARP IC50): 36 nM
30 | O=C1NC(=O)c2c1c1c(c3[nH]c4ccc(CNS(=O)(=O)c5ccccc5)cc4c23)CCC1 [Compound 2cd] | 39 nM | 
31 | O=C(CCC(=O)N1CCNCC1)c1ccc2[nH]c3c4c(c5c(c3c2c1)C(=O)NC5=O)CCC4 [Compound 4r] | 15 nM | 
32 | O=C(O)CCC(=O)c1ccc2[nH]c3c4c(c5c(c3c2c1)C(=O)NC5=O)CCC4 [Compound 2m] | 3 nM | 
33 | O=C1NC(=O)c2c1c1c(c3[nH]c4ccc(-c5csc(NC6OC(CO)C(O)C(O)C6O)n5)cc4c23)CCC1 (stereo not shown) [Compound 3ab] | 17 nM | 
34 | NCCC(=O)N1C(=O)c2c3c(c4[nH]c5ccccc5c4c2C1=O)CCC3 [Compound 1l] |  | IC50 (Table 1, read-out: PARP IC50): 160 nM
35 | COc1cccc2c1c1c3c(c4c(c1n2CN1CCOCC1)CCC4)C(=O)N(CN1CCOCC1)C3=O [Compound 16a] |  | IC50 (Table 18, read-out: PARP IC50): 10 nM
36 | CNc1nc(-c2ccc3[nH]c4c5c(c6c(c4c3c2)C(=O)NC6=O)CCC5)cs1 [Compound 3h] | 54 nM | 
37 | CC(C)(C)OC(=O)NCCCC[C@H](NC(=O)OC(C)(C)C)C(=O)n1c2ccccc2c2c3c(c4c(c21)CCC4)C(=O)NC3 [Compound 1u, 11-[Bis(t-butoxycarbonyl)-L-lysyl]-5,7,8,9,10,11-hexahydrocyclopent[a]pyrrolo[3,4-c]carbazole-7(6H)-one] |  | IC50 (Table 1, read-out: PARP IC50): 1500 nM
38 | O=C(CCC(=O)N1CCCCCCC1)c1ccc2[nH]c3c4c(c5c(c3c2c1)C(=O)NC5=O)CCC4 [Compound 4s] | 26 nM | 
39 | Cc1nc(-c2ccc3[nH]c4c5c(c6c(c4c3c2)C(=O)NC6=O)CCC5)c(Br)s1 [Compound 3c] | 84 nM | 
40 | O=C1NC(=O)c2c1c1c(c3[nH]c4ccc(F)cc4c23)CCC1 [Compound 2c] | 39 nM | 
41 | CC(C)(C)OC(=O)NCc1ccc2[nH]c3c4c(c5c(c3c2c1)C(=O)NC5=O)CCC4 [Compound 2ad, 3-(N-Boc-aminomethyl)-5,7,8,9,10,11-hexahydrocyclopent[a]pyrrolo[3,4-c]carbazole-5(6H), 7-dione] | 93 nM | 
42 | O=CNCc1ccc2[nH]c3c4c(c5c(c3c2c1)C(O)NC5=O)CCC4 (stereo not shown) [Compound 2cf] | 124 nM | 
43 | O=C(CCC(=O)N1CCOCC1)c1ccc2[nH]c3c4c(c5c(c3c2c1)C(=O)NC5=O)CCC4 [Compound 4f] | 13 nM | 
44 | O=C(NCCN1CCOCC1)c1ccc2[nH]c3c4c(c5c(c3c2c1)C(=O)NC5=O)CCC4 [Compound 2cn] | 26 nM | 
45 | O=C(Cn1cnnn1)NCc1ccc2[nH]c3c4c(c5c(c3c2c1)C(=O)NC5=O)CCC4 [Compound 2by] | 14 nM | 
46 | COC(=O)c1ccc2[nH]c3c4c(c5c(c3c2c1)C(=O)NC5=O)CCC4 [Compound 2bi] | 27 nM | 
47 | CCN(CC)CCOc1ccc2[nH]c3c4c(c5c(c3c2c1)C(=O)NC5=O)CCC4 [Compound 2ar] | 88 nM | 
48 | CCN(CC)CCOc1cccc2[nH]c3c4c(c5c(c3c12)C(=O)NC5=O)CCC4 [Compound 14e] |  | IC50 (Table 18, read-out: PARP IC50): 526 nM
